Measurements: patent US9326988B2, “Treatment and/or prevention of parkinson's disease dementia with ceftriaxone” (CHUNG SHAN MEDICAL UNIVERSITY, priority 2012, dated 2016)

Columns and labels:
rats with PDD [1] = experiment: Immunohistochemical staining (OX-6) of activated microglia in the SNc of PDD rats; type: in vivo, male Wistar rats; details: Example 1 treatment group 1: 200 mg/kg daily i.p. for 14 days after MPTP-HCl; determined 15th day (FIG. 5)
Source text: (§1) In order to investigate whether ceftriaxone is effective in ameliorating neuroinflammation and neurodegeneration of the rats with PDD, on the 15th day after the MPTP-HCl injection, four rats were randomly selected from each of the treatment group 1, the sham-operated group 1, and the pathological control group for histopathological analysis.
(§2) The randomly selected rats were sacrificed using CO2, followed by perfusion with 4% paraformaldehyde (in phosphate buffered saline). The brains were rapidly removed and were post-fixed in a 30% sucrose solution containing 4% paraformaldehyde at 4° C. for at least three days. The brains were cut into coronal sections (a thickness of about 30 μm) using a cryostat (Leica CM3050 S, Leica).
The sections containing SNc were selected. […]
The experimental data are expressed as mean±SEM. The experimental data were subjected to one-way ANOVA and were subsequently subjected to LSD test such that the difference between the pathological control group and the sham-operated group 1, and the difference between the treatment group 1 and the pathological control group could be evaluated. […]

rats with PDD [2] = experiment: Nissl staining of pyramidal neurons in the hippocampal CA1 area of PDD rats; type: in vivo, male Wistar rats; details: Example 1 treatment group 1: 200 mg/kg daily i.p. for 14 days after MPTP-HCl; determined 15th day (FIG. 6)
Source text: as §1, §2
In addition, the sections containing the hippocampal CA1 area were selected and were subjected to Nissl staining according to the method well known to and commonly used by one skilled in the art. […] Image Pro Plus Software 6.0 was utilized to estimate the percentage of an area occupied by pyramidal neurons in an area of 2,354 μm^2 according to the semi-quantitative method as described in Xavier L. L. et al. (2005), Brain Research protocols, 16:58-64.
The experimental data are expressed as mean±SEM. […]

normal rats = experiment: Object recognition test in sham-operated rats; type: in vivo, male Wistar rats; details: determined 14th day (FIG. 4)
Protocol: The rats in the sham-operated groups were generally subjected to the same surgical procedures for the rats in the pathological control group, the preventive groups, and the treatment groups, except that an equal volume of saline was infused bilaterally into the SNc of the mesencephalon of rats in the shame-operated groups.
5 days before the MPTP-HCl injection, ceftriaxone (Sigma) was administered to the rats in the preventive groups 1,2 via intraperitoneal injection respectively at a daily dose of 100 mg/kg and at a daily dose of 200 mg/kg until the end of the 14th day after the MPTP-HCl injection. After the MPTP-HCl injection, ceftriaxone was administered to the rats in the treatment group 1 and the sham-operated groups 2,3 via intraperitoneal injection respectively at a daily dose of 200 mg/kg, at a daily dose of 100 mg/kg, and at a daily dose of 200 mg/kg, and saline was administered to the rats in the pathological control group and the sham-operated group 1 via intraperitoneal injection at a daily dose of 1 mL/kg. […]
The object recognition test is described as follows. […] By virtue of the video camera, the time spent by the respective rat exploring an object (i.e. the object A1, A2, A3, or B) during a trial (i.e. the first, second, third, or fourth trial) was measured. […]

[3] = test system: 6-hydroxydopamine (6-OHDA)-lesioned rats; details: 6-OHDA-lesioned rats (animal model of PD); cited from earlier work
aged-impaired (AI) rats = details: daily dose of 200 mg/kg for 7 days; cited from earlier work
[4] = test system: rats chronically exposed to hypobaric hypoxia; details: cited from earlier work

percentage of exploration time spent on object B in the fourth trial versus object A3 in the third trial (normal rats; sham-operated group 2: 100 mg/kg daily i.p.): there is statistical significance | percentage of exploration time spent on object B in the fourth trial versus object A3 in the third trial (normal rats; sham-operated group 3: 200 mg/kg daily i.p.): there is statistical significance
Structure (SMILES): CO/N=C(\C(=O)N[C@@H]1C(=O)N2C(C(=O)O)=C(CSc3nc(=O)c(=O)[nH]n3C)CS[C@H]12)c1csc(N)n1 [ceftriaxone, Ceftriaxone]
density of activated microglia in the SNc compared to the pathological control group (rats with PDD [1]): significantly lower | percentage of an area occupied by pyramidal neurons in the hippocampal CA1 area compared to the pathological control group (rats with PDD [2]): significantly higher | motor symptoms [3]: useful in amelioration of motor symptoms | neuroprotection of dopaminergic neurons [3]: neuroprotection of dopaminergic neurons | cognitive impairment (aged-impaired (AI) rats): able to ameliorate cognitive impairment of the AI rats | cognitive impairment resulting from hypobaric hypoxia [4]: capable of ameliorating the cognitive impairment resulting from hypobaric hypoxia | neuronal degeneration and chromatin condensation [4]: decreasing neuronal degeneration and chromatin condensation | oxidative stress in the hippocampus [4]: reducing oxidative stress in the hippocampus
